According to patent publication US20110021505A1, “Use of sulfonyl-substituted 2-sulfonylaminobenzoic acid N-phenylamides in the treatment of pain” (SANOFI-AVENTIS DEUTSCHLAND GMBH, priority 2007, published 2011):

**Q.** For `COc1cc(NS(=O)(=O)c2ccc(Cl)s2)c(C(=O)Nc2ccc(S(=O)(=O)N(C)Cc3cccnc3)cc2)cc1OC.Cl`, which melting point is on record?
**A.** Its melting point is 214 °C.

**Q.** With `O=C(Nc1ccc(S(=O)(=O)N2CCSCC2)cc1)c1cc(Cl)ccc1NS(=O)(=O)c1ccc(Cl)cc1` [Example 15, 5-Chloro-2-(4-chloro-phenylsulfonylamino)-N-(4-(thiomorpholine-4-sulfonyl)-phenyl)-benzamide] as the compound, how does the melting point read?
**A.** The melting point was 246 °C.

**Q.** Which melting point does the source give for `Cc1ccc(S(=O)(=O)Nc2ccc(Cl)cc2C(=O)Nc2ccc(S(=O)(=O)N3CCOCC3)cc2)cc1` [Example 57, 5-Chloro-N-(4-(morpholine-4-sulfonyl)-phenyl)-2-(4-methyl-phenylsulfonylamino)-benzamide] here?
**A.** The melting point was 214 °C.

**Q.** Which melting point does the source give for `O=C(Nc1ccc(S(=O)(=O)N2CCS(=O)(=O)CC2)cc1)c1cc(Cl)ccc1NS(=O)(=O)c1ccc(Cl)cc1` [Example 92, 5-Chloro-2-(4-chloro-phenylsulfonylamino)-N-(4-(1,1-dioxo-thiomorpholine-4-sulfonyl)-phenyl)-benzamide] here?
**A.** The melting point was 182 °C.
